The text below walks through data of patent US20200397764A1, “VAP-1 INHIBITORS FOR TREATING PAIN” (BENEVOLENTAI CAMBRIDGE LIMITED, priority 2015, published 2020).

Assay [1] deals with CFA induced hypersensitivity. As to the kind of experiment: CFA induced hypersensitivity in rat, weight bearing (incapacitance tester). It counts as in vivo. The following applies: for inhibition of the hypersensitivity response (weight bearing) / reversal of CFA induced hypersensitivity (weight bearing): rat. The procedure: (§1) Assessment of the anti-hyperalgesic properties of (3S)-tetrahydrofuran-3-yl (4S)-4-isopropyl-1,4,6,7-tetrahydro-5H-imidazo[4,5-c]pyridine-5-carboxylate mesylate salt was determined through measurement of weight bearing following CFA induced hypersensitivity. Naive rats distribute their body weight equally between the two hind paws. However, when the injected (left) hind paw is painful, the weight is re-distributed so that less weight is put on the affected paw (decrease in weight bearing on injured paw). Weight bearing through each hind limb was measured using a rat incapacitance tester (Linton Instruments, UK). Rats were placed in the incapacitance tester with the hind paws on separate sensors and the average force exerted by both hind limbs was recorded over 4 seconds. The injection of CFA also induces an oedema that can be assessed by paw volume; this is measured using a plethysmometer. The rat's hind paw is placed into the cylinder containing a solution and the volume of displaced liquid determines the paw volume.
Naive male, Sprague Dawley rats were acclimatised with food and water available ad libitum. Habituation to the incapacitance tester was performed. Baseline weight bearing and paw volume recordings were taken prior to induction of insult. Inflammatory hypersensitivity was induced by intraplantar injection of CFA (100μl of 1 mg/ml solution) into the left hind paw. A pre-treatment weight bearing and paw volume measurement was taken to assess hypersensitivity 23 hours post-CFA. Animals were then ranked and randomised according to CFA window in a Latin square design. […] (dosed in water at 2 mL/Kg, pH ˜5-6), alongside vehicle and reference group (indomethacin), n=9-10 per group. Weight bearing was assessed in all groups 1, 2 and 4 hours post compound administration. Paw volume was assessed 4 hours post compound administration. Data was analysed by comparing treatment groups to control group at each time point. Weight bearing (g) readings were taken for both right and left hind paws and the difference calculated. Data is expressed as % reversal of the hypersensitivity to pain, (post dose reading—pre dose reading)/(naïve reading—pre dose reading)×100, where naive weight bearing difference—pre dose weight bearing difference is defined as the CFA window to be reversed Statistical analysis was conducted by means of repeated measures ANOVA followed by Planned comparison test using InVivoStat (invivostat.co.uk), (p<0.05 considered significant).
as §1, with “of (S)-Carbidopa” for “of (3S)-tetrahydrofuran-3-yl (4S)-4-isopropyl-1,4,6,7-tetrahydro-5H-imidazo[4,5-c]pyridine-5-carboxylate mesylate salt”, “the Incapacitance” for “the incapacitance”
Naive male, Sprague Dawley rats were acclimatised with food and water available ad libitum. Habituation to the incapacitance tester was performed. Baseline weight bearing and paw volume recordings were taken prior to induction of insult. Inflammatory hypersensitivity was induced by intraplantar injection of CFA (100 μl of 1 mg/ml solution) into the left hind paw.

The test system of assay [2] is CCI induced neuropathic pain. Put plainly: Chronic Constriction Injury (CCI) model of neuropathic pain, mechanical allodynia (von-Frey). The assay is classed as in vivo, rat. An excerpt: The Chronic Constriction Injury (CCI) model of neuropathic pain involves unilateral loose ligation of four ligatures around the left sciatic nerve at mid-thigh level spaced 1 mm apart. This procedure results in the development of hyperalgesia, allodynia and spontaneous pain (ectopic discharges) which can be measured using mechanical and thermal behavioural assessments. As such, this model is believed to mimic some of the symptoms and aetiology of neuropathic pain observed in the clInic (Bennett G J and Xie Y K., 1988; Field et al., 1999).
Naive male Sprague Dawley rats weighing 200-250 g were acclimatised to the procedure room in their home cages, with food and water available ad libitum. All animals underwent behavioural testing of mechanical allodynia prior to surgery in order to determine the baseline withdrawal thresholds. The average of the last two (out of three) baseline paw-withdrawal thresholds to stimulation with von-Frey hairs was taken as the baseline.
Under Isoflurane anaesthesia mixed with oxygen […] the left hind leg was shaved mid-thigh level and an incision made through the skin using a scalpel. The biceps femoris muscle layer was dissected by making an initial incision using a pair of sharp scissors, which was then widened using a pair of blunt scissors. The common sciatic nerve was exposed using a pair of forceps and 4 loose ligatures of chromic gut (SMI) were tied around the sciatic nerve with 1 mm spacing between each. The nerve was then returned below the muscle layer and the wound closed using absorbable sutures (Vicryl).
Behavioural testing started 19 days post-surgery with mechanical readings taken on day 19, and day 22. […]
On day 23, animals were treated orally with either Vehicle (30% aqueous hydroxypropyl-beta-cyclodextrin), 4-{5-[3-(4-Fluorophenyl)-3H-imidazo[4,5-c]pyridin-2-yl]pyridin-2-yl}morpholine 15, 50 and 150 mg/kg (5 mL/kg dose volume), or Pregabalin 30 mg/kg (2 mL/kg dose volume in water). Paw withdrawal thresholds (PWT) from each of the animals (mechanical von-Frey, mvF) were evaluated at 1 and 3 hours post dosing.
Static mechanical (tactile) allodynia: Measurement of withdrawal threshold was achieved using calibrated (force; g) von-Frey monofilaments (Touch-Test Sensory Evaluator; Scientific Marketing Associates) applied to the plantar surface of the hindpaw. Withdrawal threshold was determined by increasing and decreasing stimulus intensity, and estimated using the Dixon's up-down method (Dixon, 1980; Chaplan et al., 1994). […]
Mechanical allodynia (von Frey) data were analysed using two-way repeated measures ANOVA with ‘treatment’ as a between subjects effect and ‘day’ as a within subjects effect. […]

The test system of assay [3] is CFA induced oedema. As to the kind of experiment: CFA induced oedema in rat, paw volume (plethysmometer). It counts as in vivo. On the procedure: as §1, with “The rat's hind paw is placed into the cylinder containing a solution and the volume of displaced liquid determines the paw volume.” left out
Naive male, Sprague Dawley rats were acclimatised with food and water available ad libitum. […] Weight bearing was assessed in all groups 1, 2 and 4 hours post compound administration. […] Data was analysed by comparing treatment groups to control group at each time point. Weight bearing (g) readings were taken for both right and left hind paws and the difference calculated. […]
Data Is expressed as % reversal of the hypersensitivity to pain. Paw Volume (mL) readings were taken for the left hind paws. […]

Where [4] appears, read: oral 10 mg/kg, 1 and 4 hours post administration.
Where [5] appears, read: oral 1, 3 and 10 mg/kg, 24 hours post CFA, 1 and 4 hours post treatment.

For the molecule `CS(=O)(=O)N1CCN(c2ccc(-c3nc4ccncc4n3-c3ccc(F)cc3)cn2)CC1` [1-{5-[3-(4-Fluorophenyl)-3H-imidazo[4,5-c]pyridin-2-yl]pyridin-2-yl}-4 methanesulfonylpiperazine], the “inhibition of the hypersensitivity response (weight bearing)” value (from here on “inhibition”) in assay [1] (oral 3 mg/kg, 1 and 4 hours post administration) is “significant reduction at 4 hours post administration”; in assay [1] (setting [4]) it was “significantly inhibiting the hyperactivity response at both 1 and 4 hours post administration”; in assay [1] (setting [5]), “dose-dependently inhibited the hypersensitivity response”. Turning to `Fc1ccc(-n2c(-c3ccc(N4CCOCC4)nc3)nc3ccncc32)cc1` [4-{5-[3-(4-Fluorophenyl)-3H-imidazo[4,5-c]pyridin-2-yl]pyridin-2-yl}morpholine], the “withdrawal threshold (von-Frey mechanical allodynia)” value in assay [2] (rat CCI, 50 mg/kg p.o., vs the vehicle group) was “reaching statistical significance at 3 h”; in assay [2] (rat CCI, 150 mg/kg p.o., vs the vehicle group), “reaching statistical significance vs the vehicle group at 1 h and 3 h”; in assay [2] (rat CCI, 15, 50 and 150 mg/kg p.o., 1 and 3 hours post dosing, FIG. 9), “increased withdrawal threshold in a dose and temporally dependent fashion”. In the case of `CC(C)[C@H]1c2nc[nH]c2CCN1C(=O)O[C@H]1CCOC1.CS(=O)(=O)O` [(3S) Tetrahydrofuran-3-yl (4S)-4-isopropyl-1,4,6,7-tetrahydro-5H-imidazo[4,5-c]pyridine-5-carboxylate mesylate salt], the “reversal of CFA induced hypersensitivity (weight bearing)” value in assay [1] (150 mg/kg p.o., 1, 2 and 4 hours post dose) is recorded as “no significant reversal of hypersensitivity at any time point”; in assay [1] (250 mg/kg p.o., 1, 2 and 4 hours post dose), “significant reversal at 4 hours”; in assay [1] (500 mg/kg p.o., 1, 2 and 4 hours post dose) it was “effective at all time points with maximum effect seen at 4 hours post dose”.

For `CC(C)[C@H]1c2nc[nH]c2CCN1C(=O)O[C@H]1CCOC1` [(3S)-Tetrahydrofuran-3-yl (4S)-4-isopropyl-1,4,6,7-tetrahydro-5H-imidazo[4,5-c]pyridine-5-carboxylate], in assay [1] (rat, 150, 250 and 500 mg/kg p.o., compared with indomethacin 10 mg/kg, FIG. 1), the “efficacy in CFA hyperalgesia model (reversal of hypersensitivity)” value is “effective in a dose-dependent manner, and comparably in efficacy to the gold standard benchmark indomethacin”.

As to `CC(C)[C@H]1c2nc[nH]c2CCN1C(=O)O[C@H]1CCOC1.CS(=O)(=O)O` [(3S)-tetrahydrofuran-3-yl (4S)-4-isopropyl-1,4,6,7-tetrahydro-5Himidazo[4,5-c]pyridine-5-carboxylate mesylate salt], in assay [3] (rat, 150, 250 and 500 mg/kg p.o., 4 hours post compound administration), the “effect on paw volume” value is “No effect”.

As to `C[C@@](Cc1ccc(O)c(O)c1)(NN)C(=O)O` [(S)-Carbidopa, reference compound], the “effect on oedema (paw volume)” value in assay [3] (rat, Part B, 3-100 mg/kg, 3 hours post treatment, FIG. 5) was “no effect on oedema”. Besides, in assay [1] (Part B, 3-100 mg/kg alone, 1 and 3 hours post treatment, FIG. 4), the “inhibition” value is reported as “dose-dependently inhibited the hypersensitivity response”. Turning to `CC(=O)N1CCN(c2ccc(-c3nc4ccncc4n3-c3ccc(F)cc3)cn2)CC1` [Compound 2, 1-(4-{5-[3-(4-Fluorophenyl)-3H-imidazo[4,5-c]pyridin-2-yl]pyridin-2-yl}piperazin-1-yl)ethan-1-one], the “inhibition” value in assay [1] (setting [4]) is “significantly inhibiting the hyperactivity response at both 1 and 4 hours post administration”; in assay [1] (setting [5]) it was “dose-dependently inhibited the hypersensitivity response”. `C[C@]12C=CC(=O)C=C1CC[C@@H]1[C@@H]2[C@@H](O)C[C@@]2(C)[C@H]1CC[C@]2(O)C(=O)CO` [Prednisolone, reference compound]: the “inhibition” value in assay [1] (Part A, 0.3-10 mg/kg alone, 1 and 3 hours post treatment, FIG. 3) is reported as “dose-dependently inhibited the hypersensitivity response”. For `CC(C)C[C@H](CN)CC(=O)O` [Pregabalin, reference compound], in assay [2] (rat CCI, 30 mg/kg p.o., day 23 post-surgery, reference), the “withdrawal threshold (von-Frey mechanical allodynia)” value is on record as “increased the withdrawal threshold to a degree that was comparable with those animals that had undergone sham surgery”.

Turning to `COc1ccc2c(c1)c(CC(=O)O)c(C)n2C(=O)c1ccc(Cl)cc1` [indomethacin, reference compound], the “reversal of CFA induced hypersensitivity (weight bearing)” value in assay [1] (10 mg/kg, 24 hours post CFA, reference) is given as “marked reversal of the hypersensitivity”.
